From ChEMBL document CHEMBL1127971, “Novel conformationally constrained HIV-1 protease inhibitors: rational design, enzyme inhibition, and X-ray structure of an enzyme-inhibtor complex” (Bioorg Med Chem Lett, 1994) come the findings set out here.

In the experiment the target is Human immunodeficiency virus type 1 protease (Human immunodeficiency virus 1, UniProt Q72874). The experiment in a line: Inhibition of human immunodeficiency virus type 1 (HIV-1) protease.

In turn, `CC(C)(C)OC(=O)N[C@@H](Cc1ccccc1)[C@]1(O)CCCN([C@@H](Cc2ccccc2)C(=O)N[C@H]2c3ccccc3C[C@H]2O)C1` showed an IC50 greater than 100 µM.

For `CC(C)[C@H](NC(=O)OCc1ccccc1)C(=O)N[C@@H](Cc1ccccc1)C1(O)CCN(CCc2ccccc2)CC1`, it took 38.7 µM to reach half-maximal inhibition (IC50).

`CC(C)[C@H](NC(=O)OCc1ccccc1)C(=O)N[C@@H](Cc1ccccc1)[C@]1(O)CCN([C@@H](Cc2ccccc2)C(=O)N[C@H]2c3ccccc3C[C@H]2O)C1` registered a half-inhibitory concentration (IC50) of 0.22 µM.

`CC(C)(C)NC(=O)[C@H](CC1CCCCC1)N1CCC(O)([C@H](Cc2ccccc2)NC(=O)OC(C)(C)C)CC1` showed an IC50 greater than 100 µM.

The compound `CC(C)C[C@@H](C(=O)NC(C)(C)C)N1CCC[C@@](O)([C@H](Cc2ccccc2)NC(=O)OC(C)(C)C)C1` yielded a 50% inhibitory concentration (IC50) greater than 100 µM.

`CC(C)(C)NC(=O)[C@H](CC1CCCCC1)N1CCC[C@](O)([C@H](Cc2ccccc2)NC(=O)OC(C)(C)C)C1`: the concentration for half-maximal inhibition (IC50) is greater than 100 µM.

For `CC(C)(C)OC(=O)N[C@@H](Cc1ccccc1)[C@@]1(O)CCN([C@@H](Cc2ccccc2)C(=O)N[C@H]2c3ccccc3C[C@H]2O)C1`, the half-maximal inhibitory concentration (IC50) was determined as 6 µM.

In turn, `O=C(N[C@@H](Cc1ccccc1)C1(O)CCN([C@@H](Cc2ccccc2)C(=O)N[C@H]2c3ccccc3C[C@H]2O)CC1)O[C@H]1CCOC1` displayed an IC50 of 29.7 µM.

As to `CC(C)(C)OC(=O)N[C@@H](Cc1ccccc1)[C@]1(O)CCN([C@@H](Cc2ccccc2)C(=O)N[C@H]2c3ccccc3C[C@H]2O)C1`, 0.6 µM corresponded to half-maximal inhibition (IC50).

On to `CC(C)C[C@@H](C(=O)NC(C)(C)C)N1CCC(O)([C@H](Cc2ccccc2)NC(=O)[C@@H](NC(=O)OCc2ccccc2)C(C)C)CC1`, for which half-maximal inhibition (IC50) required 26.7 µM.

`CC(C)(C)NC(=O)[C@H](CC1CCCCC1)N1CC[C@@](O)([C@H](Cc2ccccc2)NC(=O)OC(C)(C)C)C1` registered an IC50 of 37 µM.

Regarding `CC(C)(C)OC(=O)N[C@@H](Cc1ccccc1)C1(O)CCN([C@@H](Cc2ccccc2)C(=O)N[C@H]2c3ccccc3C[C@H]2O)CC1`, half-maximal inhibition (IC50) was put at 1.46 µM.
